# Values joined by “and” are separate entries in the source; they are usually repeats but may differ in a detail not shown here. Equal values may be shown once. Active and inactive are the calls of the source.
# What was measured:
# Cytochrome P450 3A4 [1] = molecular target: T1, Cytochrome P450 3A4 (Homo sapiens, UniProt P08684); details: Potency
# Cytochrome P450 2C9 [2] = molecular target: T2, Cytochrome P450 2C9 (Homo sapiens, UniProt P11712)
# Cytochrome P450 3A4 [3] = molecular target: T1, Cytochrome P450 3A4
# [4] = P. falciparum Dd2 growth inhibitors, dose response, SYBR Green, cherry-picked samples (AID 1159567); type: functional, cell-based
# [5] = toxicity to human hepatoma HepG2 cells – cell-based, cherry-picked samples, cytotoxicity control, dose response (AID 1159577); type: functional
# Cytochrome P450 1A2 = molecular target: T3, Cytochrome P450 1A2 (Homo sapiens, UniProt P05177);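 note: PubChem cytochrome P450 panel assay, CYP1A2 panel member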
# T3 sequence (P05177 whole entry): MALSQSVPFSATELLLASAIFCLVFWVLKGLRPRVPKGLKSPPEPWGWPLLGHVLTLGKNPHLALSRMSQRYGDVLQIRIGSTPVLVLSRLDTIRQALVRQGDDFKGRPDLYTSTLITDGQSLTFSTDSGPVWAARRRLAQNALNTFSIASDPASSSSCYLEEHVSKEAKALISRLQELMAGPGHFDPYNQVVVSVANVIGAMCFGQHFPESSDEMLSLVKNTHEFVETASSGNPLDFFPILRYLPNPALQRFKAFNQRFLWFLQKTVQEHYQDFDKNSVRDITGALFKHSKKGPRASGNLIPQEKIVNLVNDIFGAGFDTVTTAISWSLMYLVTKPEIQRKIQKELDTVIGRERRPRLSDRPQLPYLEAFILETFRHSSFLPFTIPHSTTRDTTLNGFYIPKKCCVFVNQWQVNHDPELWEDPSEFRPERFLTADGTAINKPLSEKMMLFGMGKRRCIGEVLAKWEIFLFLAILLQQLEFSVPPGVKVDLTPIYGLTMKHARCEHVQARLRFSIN
# Cytochrome P450 2D6 = Cytochrome P450 2D6 (Homo sapiens, UniProt P10635);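 note: CYP2D6 member of a cytochrome P450 panel assay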
# Cytochrome P450 2C9 [6] = molecular target: T2, Cytochrome P450 2C9; remark: listed apart in the source
# Vero = assay: cells; type: functional, cell-based; details: Chlorocebus sabaeus
# Protein skinhead-1 = molecular target: T4, Protein skinhead-1 (Caenorhabditis elegans, UniProt P34707); type: functional
# T4 sequence (P34707 whole entry): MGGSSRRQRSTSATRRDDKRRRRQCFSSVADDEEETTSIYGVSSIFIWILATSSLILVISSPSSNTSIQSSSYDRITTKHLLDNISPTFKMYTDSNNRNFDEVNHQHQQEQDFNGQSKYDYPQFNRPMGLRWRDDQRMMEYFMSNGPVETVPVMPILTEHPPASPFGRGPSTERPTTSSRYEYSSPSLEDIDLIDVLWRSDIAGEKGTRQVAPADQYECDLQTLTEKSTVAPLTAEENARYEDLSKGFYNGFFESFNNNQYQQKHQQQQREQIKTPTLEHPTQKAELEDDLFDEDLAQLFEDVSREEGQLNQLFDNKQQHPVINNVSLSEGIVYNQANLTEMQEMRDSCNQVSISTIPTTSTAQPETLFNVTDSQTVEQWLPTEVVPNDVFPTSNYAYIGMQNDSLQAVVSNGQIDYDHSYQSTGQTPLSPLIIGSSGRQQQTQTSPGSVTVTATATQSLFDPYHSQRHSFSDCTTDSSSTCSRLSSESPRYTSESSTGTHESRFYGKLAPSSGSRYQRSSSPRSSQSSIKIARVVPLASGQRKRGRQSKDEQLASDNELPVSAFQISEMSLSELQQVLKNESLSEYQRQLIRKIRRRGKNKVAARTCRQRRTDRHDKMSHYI
# Nonstructural protein 1 = Nonstructural protein 1 (Influenza A virus, UniProt Q194T2); type: functional, Influenza A virus (A/California/07/2009(H1N1))
# H9c2 = assay: cells; type: functional, cell-based; details: Rattus norvegicus, H9c2, Myocardium;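 note: confirmatory concentration-response retest of ultra-high-throughput screening hits for modulation of myocardial damage; cell death induced by hydrogen peroxide oxidative stress; compound pretreatment for 60 min then peroxide exposure for 2 h; potency is for protecting the cells against peroxide damage rather than for killing them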
# Paired box protein Pax-8 = Paired box protein Pax-8 (Homo sapiens, UniProt Q06710); assay: PAX8 transcriptional activity inhibition in RMG-I – RMG-I cells, luciferase, cherry-pick, dose response (AID 687027); type: functional, cell-based;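 note: luciferase reporter driven by Pax8 target thyroperoxidase promoter measured by SteadyGlo luminescence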
# Chain of Paired box protein Pax-8 (Q06710 whole entry): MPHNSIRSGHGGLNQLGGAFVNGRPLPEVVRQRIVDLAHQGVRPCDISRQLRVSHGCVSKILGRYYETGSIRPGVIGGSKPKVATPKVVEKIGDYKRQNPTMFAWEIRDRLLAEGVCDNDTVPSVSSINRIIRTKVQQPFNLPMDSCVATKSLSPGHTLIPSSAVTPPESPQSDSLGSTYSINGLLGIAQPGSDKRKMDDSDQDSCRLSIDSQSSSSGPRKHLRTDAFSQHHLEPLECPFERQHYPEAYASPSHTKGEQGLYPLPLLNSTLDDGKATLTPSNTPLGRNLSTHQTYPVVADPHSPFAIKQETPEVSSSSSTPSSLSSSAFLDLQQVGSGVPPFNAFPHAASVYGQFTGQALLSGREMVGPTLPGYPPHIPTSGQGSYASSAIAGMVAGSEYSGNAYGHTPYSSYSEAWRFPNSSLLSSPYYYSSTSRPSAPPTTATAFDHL
# T1 sequence (P08684 whole entry): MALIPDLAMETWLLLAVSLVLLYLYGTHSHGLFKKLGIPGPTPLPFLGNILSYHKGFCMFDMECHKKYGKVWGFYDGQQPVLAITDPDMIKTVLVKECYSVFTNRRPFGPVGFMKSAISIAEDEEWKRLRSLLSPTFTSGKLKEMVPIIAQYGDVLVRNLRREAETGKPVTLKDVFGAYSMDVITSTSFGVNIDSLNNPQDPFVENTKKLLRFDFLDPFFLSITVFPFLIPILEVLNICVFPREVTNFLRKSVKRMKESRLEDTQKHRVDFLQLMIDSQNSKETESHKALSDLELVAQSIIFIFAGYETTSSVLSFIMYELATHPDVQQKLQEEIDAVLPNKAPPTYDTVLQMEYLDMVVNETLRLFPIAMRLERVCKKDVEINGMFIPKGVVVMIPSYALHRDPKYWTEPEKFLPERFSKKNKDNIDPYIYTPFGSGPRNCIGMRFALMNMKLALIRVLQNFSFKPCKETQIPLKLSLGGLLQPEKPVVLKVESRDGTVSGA
# T2 sequence (P11712 whole entry): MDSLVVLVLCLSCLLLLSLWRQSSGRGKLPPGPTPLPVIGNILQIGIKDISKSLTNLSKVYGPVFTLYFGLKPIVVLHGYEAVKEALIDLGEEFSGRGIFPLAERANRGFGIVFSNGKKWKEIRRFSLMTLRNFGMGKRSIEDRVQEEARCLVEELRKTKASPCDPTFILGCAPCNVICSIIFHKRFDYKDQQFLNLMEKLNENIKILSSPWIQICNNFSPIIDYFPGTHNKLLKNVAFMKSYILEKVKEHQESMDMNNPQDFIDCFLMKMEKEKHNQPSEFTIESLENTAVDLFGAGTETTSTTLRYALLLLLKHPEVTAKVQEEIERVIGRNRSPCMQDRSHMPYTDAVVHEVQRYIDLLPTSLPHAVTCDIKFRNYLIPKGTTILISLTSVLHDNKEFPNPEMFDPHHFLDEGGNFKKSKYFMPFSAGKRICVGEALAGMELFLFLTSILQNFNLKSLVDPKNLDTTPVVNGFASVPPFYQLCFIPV
# Chain of Nonstructural protein 1 (Q194T2 whole entry): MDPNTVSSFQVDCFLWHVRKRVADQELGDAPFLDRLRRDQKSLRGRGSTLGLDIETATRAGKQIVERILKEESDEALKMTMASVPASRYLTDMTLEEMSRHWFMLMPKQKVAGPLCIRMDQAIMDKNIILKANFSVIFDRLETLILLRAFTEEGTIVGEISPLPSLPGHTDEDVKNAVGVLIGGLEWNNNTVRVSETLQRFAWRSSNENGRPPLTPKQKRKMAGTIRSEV
# Chain of Cytochrome P450 2D6 (P10635 whole entry): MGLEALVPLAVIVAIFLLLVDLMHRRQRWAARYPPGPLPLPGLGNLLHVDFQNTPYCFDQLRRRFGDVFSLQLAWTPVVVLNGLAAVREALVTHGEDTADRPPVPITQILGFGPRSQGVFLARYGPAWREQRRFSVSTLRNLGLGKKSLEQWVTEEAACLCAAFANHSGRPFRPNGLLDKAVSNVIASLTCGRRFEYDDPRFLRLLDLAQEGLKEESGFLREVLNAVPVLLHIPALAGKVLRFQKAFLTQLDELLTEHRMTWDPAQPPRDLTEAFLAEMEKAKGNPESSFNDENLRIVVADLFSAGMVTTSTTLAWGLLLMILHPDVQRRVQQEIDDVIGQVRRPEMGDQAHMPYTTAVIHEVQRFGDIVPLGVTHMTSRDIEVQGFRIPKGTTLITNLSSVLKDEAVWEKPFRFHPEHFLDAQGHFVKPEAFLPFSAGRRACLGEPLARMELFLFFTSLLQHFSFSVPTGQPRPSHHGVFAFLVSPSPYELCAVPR
compound,measurement,setting,value
COC(=O)[C@]1(C)C[C@H]1[C@H](NP(=O)(c1ccccc1)c1ccccc1)c1ccccc1,AC50,Cytochrome P450 3A4 [1],12.6 µM (inconclusive)
CC[C@@H](c1ccccc1)n1c(=O)n2n(c1=O)[C@H]1[C@H](O)[C@H]3O[C@@H]3/C(=N/OC/C=C(\C)CCC=C(C)C)[C@@H]1CC2,AC50,Cytochrome P450 2C9 [2],inconclusive
same,AC50,Cytochrome P450 3A4 [3],3.98 µM (inconclusive)
Cc1ccccc1-c1ccc([C@@H]2[C@@H]3CN(Cc4cccnc4)C[C@H]2N3)cc1,AC50,[4],1.19 µM (active)
same,AC50,[5],9.78 µM (active)
Cc1ccccc1-c1ccc([C@H]2[C@@H]3CN(Cc4cccnc4)C[C@H]2N3)cc1,AC50,[4],4.95 µM (active)
same,AC50,[5],24.4 µM (active)
Cc1[nH]c2ccc(O)cc2c1CCN,AC50,Cytochrome P450 1A2,31.6 µM (inconclusive) and 20 µM (inconclusive)
same,AC50,Cytochrome P450 2C9 [2],39.8 µM (inconclusive)
same,AC50,Cytochrome P450 2D6,20 µM (inconclusive) and 39.8 µM (inconclusive)
same,AC50,Cytochrome P450 2C9 [6],39.8 µM (inconclusive)
CO[C@H]1COC(=O)C/C=C\[C@@H](C)COC(=O)[C@H]2CCCN2C(=O)C/C=C\[C@H]1C,AC50,Cytochrome P450 2C9 [2],inconclusive
CCCCN=C(S)NNC(=O)c1csc2c1CCC(C)C2 (stereo unspecified),AC50,Cytochrome P450 2C9 [2],inconclusive
same,AC50,Cytochrome P450 3A4 [3],15.8 µM (inconclusive)
same,AC50,Cytochrome P450 2D6,22.4 µM (inconclusive)
Cc1cc(NC(=O)c2ccc3nccnc3c2)ccc1Br,IC50,Vero,> 25 µM (active)
COc1cc(OC)c(C(C)=O)c(O)c1C,AC50,Cytochrome P450 3A4 [1],0.316 µM (inconclusive)
CC1=NN(c2ccccc2)C(=O)/C1=C\C=C1/N(C)c2ccccc2C1(C)C,IC50,Protein skinhead-1,21.9 µM (active)
same,IC50,Nonstructural protein 1,11.8 µM (active)
N#Cc1ccc(C23CC4(C2)[C@H](CN(P(=O)(c2ccccc2)c2ccccc2)[C@@H]4c2ccccc2)C3c2ccc(Cl)nc2)cc1 (stereo partly specified),AC50,Cytochrome P450 3A4 [1],2 µM (inconclusive)
CCC1=C2CC[C@H]3C(=O)N(C)C(=O)[C@H]3[C@H]2[C@@]2(C)C(=O)N(CC(=O)OC)C(=O)N2C1=O,AC50,Cytochrome P450 3A4 [1],25.1 µM (inconclusive)
N#Cc1cccc(-c2ccc([C@@H]3[C@@H]4CN(C(=O)Nc5ccc(C(F)(F)F)cc5)C[C@H]3N4)cc2)c1,AC50,[4],4.72 µM (active)
same,AC50,[5],10.5 µM (active)
C#C[C@]1(OC(C)=O)CCC2C3CCC4=CC(=O)CCC4C3CC[C@]21C (stereo partly specified),AC50,Cytochrome P450 3A4 [1],39.8 µM (inconclusive)
c1ccc(-c2cn(C[C@H]3CC[C@@H]([C@@H]4CC[C@H](Cn5cc(-c6ccccn6)nn5)O4)O3)nn2)nc1,IC50,Nonstructural protein 1,5.72 µM (active)
Cc1ccc(OCC(=O)N/N=C/c2cccc3cccnc23)cc1,IC50,H9c2,14.1 µM (active)
same,IC50,Nonstructural protein 1,25.6 µM (active)
COc1ccc(C2COc3c(ccc(O)c3OC)C2)c(OC)c1O (stereo unspecified),AC50,Cytochrome P450 3A4 [1],25.1 µM (inconclusive)
C[C@@H]1CN([C@@H](C)CO)C(=O)c2ccccc2-c2ccccc2CO[C@H]1CN(C)Cc1ccccc1C(F)(F)F,AC50,[4],2.97 µM (active)
same,AC50,Paired box protein Pax-8,12.3 µM (active)
same,AC50,[5],7.72 µM (active)

# — ChEMBL document CHEMBL1201862, “PubChem BioAssay data set” (2004)
